Source: patent US20180325914A1, “INCREASING STORAGE OF VITAMIN A, VITAMIN D AND/OR LIPIDS” (Salk Institute for Biological Studies, priority 2014, published 2018)

Tested on: primary HSCs
Conditions: mRNA-Seq expression, Day_6_JQ1

With `Cc1sc2c(c1C)C(c1ccc(Cl)cc1)=N[C@@H](CC(=O)OC(C)(C)C)c1nnc(C)n1-2` [JQ1, (S)-tert-butyl 2-(4-(4-chlorophenyl)-2,3,9-trimethyl-6H-thieno[3,2-f][1,2,4]triazolo[4,3-a][1,4]diazepin-6-yl)acetate] the “Nav2 value_2” value was 5.311, the “Ndn value_2” value was 33.2623 and the “Nnmt value_2” value was 30.0607. For the same compound, the “Npr2 value_2” value was 10.1828, the “Nradd value_2” value was 15.4656 and the “Nuak1 value_2” value was 12.6565. For the same compound, the “Nudt18 value_2” value was 6.501, the “Ogdhl value_2” value was 4.726 and the “Paqr8 value_2” value was 7.424. For the same compound, the “Pcolce value_2” value was 103.689, the “Pde4dip value_2” value was 14.9114 and the “Pdia5 value_2” value was 20.7466. For the same compound, the “Pgcp value_2” value was 20.5624, the “Pgm2 value_2” value was 36.9612 and the “Pkig value_2” value was 41.8645. The “Pla2g4a value_2” value was 14.8571, the “Plod3 value_2” value was 47.8896 and the “Ppp2r5b value_2” value was 15.5804. The “Praf2 value_2” value was 50.8557, the “Prnp value_2” value was 204.182 and the “Psd3 value_2” value was 5.579. For the same compound, the “Ptger3 value_2” value was 6.064, the “Ptgfrn value_2” value was 24.2749 and the “Ptk2b value_2” value was 17.1497. For the same compound, the “Qsox1 value_2” value was 91.7197, the “Rasl11a value_2” value was 68.0496 and the “Rasl11b value_2” value was 27.3606. For the same compound, the “Reep5 value_2” value was 42.7167, the “Rftn1 value_2” value was 20.5933 and the “Rhoq value_2” value was 36.4737. The “Rian value_2” value was 23.3478, the “Samd4 value_2” value was 15.2321 and the “Scd1 value_2” value was 23.3211. For the same compound, the “Sec23a value_2” value was 28.8101, the “Sepw1 value_2” value was 95.2318 and the “Serping1 value_2” value was 119.681. The “Setbp1 value_2” value was 2.434, the “Shroom3 value_2” value was 5.757 and the “Slc7a6 value_2” value was 20.2814. For the same compound, the “Slc24a3 value_2” value was 3.111, the “Snurf value_2” value was 6.708 and the “Steap2 value_2” value was 17.4478. The “Thbs2 value_2” value was 44.7287, the “Tmem9 value_2” value was 20.5522 and the “Tmem176a value_2” value was 136.733. The “Tpm2 value_2” value was 114.662, the “Ttc19 value_2” value was 10.9985 and the “Ufsp2 value_2” value was 21.3133. The “Ypel5 value_2” value was 34.2738, the “Zfp651 value_2” value was 5.6272 and the “Zmat3 value_2” value was 18.2014. For the same compound, the “Zranb3 value_2” value was 2.608, the “value_2, gene 2210013O21Rik” value was 38.055 and the “value_2, gene 2610018G03Rik” value was 7.783. The “value_2, gene 2700094K13Rik” value was 52.964, the “value_2, gene 2810055F11Rik” value was 9.372 and the “value_2, gene AI464131” value was 6.393. The “value_2, gene Acadsb” value was 26.5141, the “value_2, gene Aes” value was 188.935 and the “value_2, gene Agl” value was 8.667. The “value_2, gene Ankrd44” value was 7.9209, the “value_2, gene Aplp1” value was 20.7172 and the “value_2, gene Arhgap1” value was 99.931. For the same compound, the “value_2, gene Aurka” value was 17.2799, the “value_2, gene Bace1” value was 40.101 and the “value_2, gene Bmpr1a” value was 33.5187. The “value_2, gene Bsg” value was 560.767, the “value_2, gene Cacna2d1” value was 7.615 and the “value_2, gene Calm3” value was 185.514. The “value_2, gene Ccdc3” value was 44.0572, the “value_2, gene Ccdc102a” value was 12.129 and the “value_2, gene Ccdc122” value was 5.501. For the same compound, the “value_2, gene Ccne1” value was 13.7889, the “value_2, gene Cdc42bpg” value was 9.647 and the “value_2, gene Cenpa” value was 18.2009. The “value_2, gene Cfh” value was 33.8709, the “value_2, gene Clip3” value was 25.4738 and the “value_2, gene Cpeb2” value was 7.639. For the same compound, the “value_2, gene Cpxm1” value was 119.242, the “value_2, gene Ctsf” value was 19.6316 and the “value_2, gene Cxxc5” value was 28.6295. For the same compound, the “value_2, gene Dhcr24” value was 17.3636, the “value_2, gene Dynlt3” value was 74.0523 and the “value_2, gene Efna4” value was 6.053. For the same compound, the “value_2, gene Ephb2” value was 12.3025, the “value_2, gene Fam26e” value was 11.6803 and the “value_2, gene Fam168a” value was 23.5828. For the same compound, the “value_2, gene Fat1” value was 68.0733, the “value_2, gene Fkbp9” value was 153.585 and the “value_2, gene Fstl1” value was 883.839. The “value_2, gene Gadd45g” value was 151.82, the “value_2, gene Ggcx” value was 22.6363 and the “value_2, gene Gjc2” value was 5.148. For the same compound, the “value_2, gene Gpam” value was 13.2457, the “value_2, gene Gpnmb” value was 100.919 and the “value_2, gene Gpr153” value was 15.34. The “value_2, gene Grb10” value was 117.152, the “value_2, gene Gstm4” value was 11.4343 and the “value_2, gene Gtse1” value was 16.4741. The “value_2, gene Gucylb3” value was 35.4413, the “value_2, gene Gxylt2” value was 8.031 and the “value_2, gene Hic1” value was 40.7263. For the same compound, the “value_2, gene Hspb6” value was 15.1361, the “value_2, gene Htra1” value was 128.76 and the “value_2, gene Irs2” value was 11.6492. The “value_2, gene Itgb5” value was 206.046.
